# Results reported in paper PMC6688628, “N-Substituted Pyrrole Derivative 12m Inhibits HIV-1 Entry by Targeting Gp41 of HIV-1 Envelope Glycoprotein” (Frontiers in Pharmacology, 2019).
# Experiments:
# [1] = tested on: HIV-1 IIIB; assay: Cell-cell HIV-1 IIIB transmission, MT-2 to CEMx174 5.25 M7 cells; assay type: cell-based; conditions: Human immunodeficiency virus 1, IIIB; infected MT-2 to CEMx174 5.25 M7 cells; luciferase
# Procedure: (§1) Inhibition of fusion between MT-2 cells infected by HIV-1 strains (X4 and R5 viruses) with CEMx174 5.25 M7 cells, which express CD4 and both coreceptors, CXCR4 and CCR5, was determined by a luciferase assay. Briefly, MT-2 cells were infected with the corresponding HIV-1 strains for 7 days. The infected MT-2 cells were washed three times and resuspended in culture medium to 2 × 10^5/ml. Then, 50 μl of a compound at graded concentrations in triplicate was incubated with equal volumes of HIV-1-infected MT-2 cells at 37°C for 30 min. Next, 100 μl of CEMx174 5.25 M7 cells (4 × 10^5/ml) was added, and the cells were incubated at 37°C for 3 days. The cells were collected, washed, and lysed with the lysing reagent included in the luciferase kit (Promega, Corp., Madison, Wis). Aliquots of cell lysates were transferred to 96-well flat-bottom luminometer plates (Costar), followed by the addition of luciferase substrate (Promega). Luciferase activity was measured using an Ultra 384 luminometer. ADS-J1 was used as a positive control for all cell–cell fusion assays.
# [2] = tested on: HIV-1 R5 virus; assay: Cell-cell HIV-1 R5 transmission, MT-2 to CEMx174 5.25 M7 cells; assay type: cell-based; conditions: Human immunodeficiency virus 1; infected MT-2 to CEMx174 5.25 M7 cells; luciferase
# Procedure: as §1
# [3] = tested on: HIV-1JR-FL Env mutant K574A pseudovirus; assay type: cell-based; conditions: compared with wild-type HIV-1JR-FL pseudovirus
# [4] = tested on: primary HIV-1 strains, including the X4, R5, and X4R5 strains; assay: Anti-HIV-1 activity, panel of primary HIV-1 strains; assay type: cell-based; conditions: Human immunodeficiency virus 1; range over X4, R5 and X4R5 primary strains; read-out: EC50 values against all tested representative primary HIV-1 strains
# Procedure: (§2) The HIV-1 replication-inhibiting activity of compounds was determined as previously described ([Li et al., 2013]). Briefly, 1 × 10^4 TZM-bl or MT-2 cells were infected with primary HIV-1 strains or T20-resistant HIV-1 strains (100 TCID50) in 200 µl of RPMI-1640 medium containing 10% FBS in the presence or absence of compounds at graded concentrations for 12 h. The culture medium was replaced with fresh medium without the compounds. After culture for an additional 48 h, supernatants or cells were collected from each well. For the primary HIV-1 strains, the cells were treated using a luciferase kit. Briefly, the cells were lysed with the lysis reagent and were transferred into a 96-well flat-bottom luminometer plate after three washes with phosphate-buffered saline (PBS) (Costar Corning Inc., Corning, NY), followed by addition of the luciferase substrate included in the luciferase kit (Promega Corp., Madison, WI). The luciferase activity was measured immediately by an Ultra 384 microplate reader (Tecan, Research Triangle Park, NC). T20 was used as a positive control. For the T20-resistant HIV-1 strains, 100 µl of culture supernatant was mixed with 100 µl of 5% Triton X-100. […] Absorbance at 450 nm was recorded in an ELISA reader (Ultra 384, Tecan). EC50 values were calculated using the computer program CalcuSyn ([Chou and Talalay, 1984]).
# [5] = tested on: HIV-1 92UG029; assay: Anti-HIV-1 activity, primary strain 92UG029; assay type: cell-based; conditions: Human immunodeficiency virus 1, luciferase readout, mean ± SD
# [6] = tested on: HIV-1SF162 (R5 strain) Env pseudotyped virus; assay: microbe, parasite or virus in culture; assay type: cell-based; conditions: Human immunodeficiency virus 1, single-cycle infection, luciferase
# [7] = tested on: VSV-G pseudotyped virus; assay type: cell-based, vesicular stomatitis virus
# [8] = XTT assay, TZM-bl cells; assay type: cell-based; conditions: human
# Procedure: (§3) The in vitro cell viability of NSPD-12m on HIV-1 target cells (U87-CD4-CXCR4, U87-CD4-CCR5, TZM-bl, and MT-2 cells) and HIV effector cells (CHO-WT cells) was analyzed by an XTT colorimetric assay. Briefly, 100 µl of 5 × 10^5/ml cells was mixed and incubated with 100 µl of NSPD-12m at graded concentrations at 37°C for 3 days. Then, 50 µl of XTT solution (1 mg/ml) containing 0.02 µM of phenazinemethosulphate (PMS) was added to each well, and the cells were incubated at 37°C for another 4 h. The absorbance at 450 nm was measured with an ELISA reader. The 50% cytotoxicity concentrations (CC50) were calculated using the CalcuSyn software ([Chou and Talalay, 1984]).
# [9] = tested on: HIV-1 NL4-3D36G; assay type: cell-based; conditions: T20-sensitive parent strain, p24 ELISA, mean ± SD
# [10] = XTT assay, MT-2 cells; assay type: cell-based; conditions: human
# Procedure: as §3
# [11] = tested on: HIV-1 NL4-3(36G)V38A; conditions: T20-resistant NL4-3(36G)V38A; p24 ELISA; mean ± SD
# [12] = tested on: HIV-1 X4 virus; assay: Cell-cell HIV-1 X4 transmission, MT-2 to CEMx174 5.25 M7 cells; assay type: cell-based; conditions: Human immunodeficiency virus 1; infected MT-2 to CEMx174 5.25 M7 cells; luciferase
# Procedure: as §1
# [13] = XTT assay, U87-CD4-CCR5 cells; assay type: cell-based; conditions: human
# Procedure: as §3
# [14] = target: T1, synthetic peptide N36 (gp41 NHR) (Human immunodeficiency virus type 1 group M subtype B, UniProt P04578); assay: Surface plasmon resonance binding to N36; parameters: species or system HIV-1; conditions: SPR, compound immobilized on chip, N36 injected, 25°C; read-out: binding affinity (KD) to N36
# T1 construct: purchased GL Biochem of China; host or cells: chemical solid-phase Fmoc synthesis
# Procedure: N36 at different concentrations (125, 250, and 500 µM in PBS) was injected at a flow rate of 2 µl/s with an association and dissociation time of 300 s at 25°C. At the end of each cycle, glycine–HCl buffer (pH 2.0) at a flow rate of 3 µl/s was used to regenerate the surface of the sensor chip platform with a regeneration time of 300 s. The binding affinity (KD) was calculated using the PlexeraDE data analysis module and GraphPad Prism 5.0 software.
# [15] = tested on: HIV-1 NL4-3(36G)V38E,N42S; conditions: T20-resistant NL4-3(36G)V38E,N42S; p24 ELISA; mean ± SD
# [16] = tested on: T20-resistant HIV-1 strains; assay: Anti-HIV-1 activity, panel of T20-resistant mutants; assay type: cell-based; conditions: Human immunodeficiency virus 1; range over T20-resistant mutants; read-out: EC50 values against a series of T20-resistant mutants
# Procedure: as §2
# [17] = tested on: HIV-1 NL4-3(36G)V38A,N42D; conditions: T20-resistant NL4-3(36G)V38A,N42D; p24 ELISA; mean ± SD
# T1 sequence (P04578 546-581): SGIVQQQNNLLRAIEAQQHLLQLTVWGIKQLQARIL
smiles,measurement,setting,value
Cc1cc(/C=C2\SC(=S)N(Cc3ccccc3C(F)(F)F)C2=O)c(C)n1-c1ccc(O)c(C(=O)O)c1 [NSPD-12m],EC50,[1],1990 ± 80 nM
same,EC50,[2],1420 ± 300 nM
same,inhibitory activity against K574A mutant pseudovirus,[3],significant loss
same,EC50,[4],2.03 to 6.85 µM
same,IC50,[5],2080 ± 41 nM
same,IC90,[5],2480 ± 41 nM
same,EC50,[6],~19.7 µM
same,inhibition of VSV-G pseudovirus infection,[7],could not be strongly inhibited
same,CC50 at 3 days,[8],79 ± 11.4 µM
same,CC90 at 3 days,[8],118 ± 18 µM
same,IC50,[9],10.8 ± 1.67 µM
same,IC90,[9],55.4 ± 16.9 µM
same,CC50 at 3 days,[10],67.1 ± 11 µM
same,CC90 at 3 days,[10],124 ± 70.2 µM
same,IC50,[11],23.7 ± 5.15 µM
same,IC90,[11],32.5 ± 5.42 µM
same,EC50,[12],3.64 ± 0.34 µM
same,CC50 at 3 days,[13],84.7 ± 14.5 µM
same,CC90 at 3 days,[13],102 ± 18.3 µM
same,Kd,[14],411 nM
same,IC50,[15],5.26 ± 0.762 µM
same,IC90,[15],19.6 ± 0.552 µM
same,EC50,[16],15.7 to 24.7 µM
same,IC50,[17],22.4 ± 2.84 µM
same,IC90,[17],32.5 ± 4.95 µM
